ChEMBL document CHEMBL1201862, “PubChem BioAssay data set” (2004)
The source made the active and inactive calls. Rule as the data show it, for most assays here: actives have a measured EC50 and inactives only a lower limit.

Key:
[1] = molecular target: T1, Corticotropin-releasing factor receptor 2/Corticotropin-releasing factor-binding protein (Homo sapiens, UniProt P24387+Q13324); test: activators of CRF receptor 2 with binding protein – uHTS hits, confirmation (AID 602473); assay type: functional; details: read-out: EC50_Mean
T1 sequence (Q13324 whole entry): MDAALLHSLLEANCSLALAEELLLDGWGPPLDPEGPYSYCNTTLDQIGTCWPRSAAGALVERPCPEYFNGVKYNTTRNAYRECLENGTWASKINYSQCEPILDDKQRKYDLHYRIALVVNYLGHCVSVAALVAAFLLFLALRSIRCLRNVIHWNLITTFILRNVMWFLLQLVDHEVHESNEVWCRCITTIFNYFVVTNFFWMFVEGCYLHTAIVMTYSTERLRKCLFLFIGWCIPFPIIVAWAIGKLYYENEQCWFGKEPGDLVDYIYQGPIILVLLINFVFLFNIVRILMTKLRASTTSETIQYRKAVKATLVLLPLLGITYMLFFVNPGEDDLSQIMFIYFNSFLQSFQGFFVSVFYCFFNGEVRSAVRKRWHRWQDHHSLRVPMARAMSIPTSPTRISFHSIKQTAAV
T1 sequence (P24387 whole entry): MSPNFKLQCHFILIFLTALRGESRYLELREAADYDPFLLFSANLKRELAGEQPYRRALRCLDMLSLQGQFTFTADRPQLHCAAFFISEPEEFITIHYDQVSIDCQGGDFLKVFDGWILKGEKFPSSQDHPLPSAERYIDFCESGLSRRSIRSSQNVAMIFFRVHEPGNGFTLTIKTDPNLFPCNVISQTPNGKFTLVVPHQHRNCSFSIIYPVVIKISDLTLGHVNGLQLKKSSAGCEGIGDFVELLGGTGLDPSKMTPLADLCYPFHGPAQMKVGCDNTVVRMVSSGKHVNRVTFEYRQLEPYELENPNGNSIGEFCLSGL

[2] = molecular target: T1, Corticotropin-releasing factor receptor 2/Corticotropin-releasing factor-binding protein; test: Dose Response confirmation of uHTS hits for small molecule antagonists of the CRF-binding protein and CRF-R2 receptor complex.; assay type: functional; details: read-out: IC50_Mean
[3] = molecular target: T2, Heat shock factor protein 1 (Mus musculus, UniProt P38532); test: enhancement of HSF1-driven luciferase signal – cell-based, NIH3T3, luminescence, dose retest, confirmation (AID 435004); assay type: functional;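 also: stress induced by proteasome inhibitor MG132 added 30 min after compound; luciferase reporter driven by HSF1 response element in NIH3T3 cells; actives raise luminescence as potentiators of the MG132 stress response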
T2 sequence (P38532 whole entry): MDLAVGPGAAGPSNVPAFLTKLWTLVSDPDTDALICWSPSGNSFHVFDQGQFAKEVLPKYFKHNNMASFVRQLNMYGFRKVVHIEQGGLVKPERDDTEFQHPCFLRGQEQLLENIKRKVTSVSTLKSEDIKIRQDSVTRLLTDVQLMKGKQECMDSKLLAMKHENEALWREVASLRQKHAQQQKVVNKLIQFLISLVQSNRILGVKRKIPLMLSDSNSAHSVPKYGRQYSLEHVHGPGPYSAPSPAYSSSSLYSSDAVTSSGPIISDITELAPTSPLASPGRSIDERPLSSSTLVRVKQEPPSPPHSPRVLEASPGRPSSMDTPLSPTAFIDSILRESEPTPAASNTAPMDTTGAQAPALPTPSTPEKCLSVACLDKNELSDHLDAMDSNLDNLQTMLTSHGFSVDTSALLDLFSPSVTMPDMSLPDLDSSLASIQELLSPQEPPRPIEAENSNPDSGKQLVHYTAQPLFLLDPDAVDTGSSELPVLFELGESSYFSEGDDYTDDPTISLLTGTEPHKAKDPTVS

[4] = molecular target: T3, Replicative DNA helicase DnaB (Mycobacterium tuberculosis, UniProt P9WMR3); test: DnaB intein splicing inhibitors, dose response, biochemical, cell-free fluorescence (AID 449749); assay type: functional
T3 sequence (P9WMR3 whole entry): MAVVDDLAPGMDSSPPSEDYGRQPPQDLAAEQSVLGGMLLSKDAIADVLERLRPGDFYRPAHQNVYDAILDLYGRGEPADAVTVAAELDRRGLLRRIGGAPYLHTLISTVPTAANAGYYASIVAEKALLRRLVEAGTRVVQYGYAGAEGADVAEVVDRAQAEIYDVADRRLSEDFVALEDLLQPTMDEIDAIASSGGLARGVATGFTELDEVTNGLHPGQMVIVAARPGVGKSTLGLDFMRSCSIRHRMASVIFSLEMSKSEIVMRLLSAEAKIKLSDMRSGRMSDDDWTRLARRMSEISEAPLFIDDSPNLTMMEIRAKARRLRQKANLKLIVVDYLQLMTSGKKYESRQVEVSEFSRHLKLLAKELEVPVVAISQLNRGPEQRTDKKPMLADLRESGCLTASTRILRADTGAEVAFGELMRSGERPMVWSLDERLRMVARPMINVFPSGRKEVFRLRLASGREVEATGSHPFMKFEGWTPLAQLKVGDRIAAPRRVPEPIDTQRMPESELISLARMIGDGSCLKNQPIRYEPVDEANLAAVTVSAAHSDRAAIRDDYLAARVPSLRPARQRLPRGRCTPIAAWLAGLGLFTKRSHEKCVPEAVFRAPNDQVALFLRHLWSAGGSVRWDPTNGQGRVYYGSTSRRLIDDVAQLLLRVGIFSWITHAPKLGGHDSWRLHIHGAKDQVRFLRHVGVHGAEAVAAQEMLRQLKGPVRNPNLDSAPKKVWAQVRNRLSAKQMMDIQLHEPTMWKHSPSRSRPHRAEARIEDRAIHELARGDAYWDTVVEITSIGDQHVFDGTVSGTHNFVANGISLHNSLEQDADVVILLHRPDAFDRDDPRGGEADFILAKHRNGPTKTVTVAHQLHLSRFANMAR

Streptokinase A = molecular target: T4, Streptokinase A (Streptococcus pyogenes serotype M1, UniProt P10520); test: viability-normalized secreted streptokinase activity reduction – plasminogen activation absorbance, OD405, dose response (AID 1914); assay type: functional, Streptococcus pyogenes M1 GAS;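 also: secreted streptokinase activity via plasminogen activation per viability signal from cell pellet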
T4 sequence (P10520 whole entry): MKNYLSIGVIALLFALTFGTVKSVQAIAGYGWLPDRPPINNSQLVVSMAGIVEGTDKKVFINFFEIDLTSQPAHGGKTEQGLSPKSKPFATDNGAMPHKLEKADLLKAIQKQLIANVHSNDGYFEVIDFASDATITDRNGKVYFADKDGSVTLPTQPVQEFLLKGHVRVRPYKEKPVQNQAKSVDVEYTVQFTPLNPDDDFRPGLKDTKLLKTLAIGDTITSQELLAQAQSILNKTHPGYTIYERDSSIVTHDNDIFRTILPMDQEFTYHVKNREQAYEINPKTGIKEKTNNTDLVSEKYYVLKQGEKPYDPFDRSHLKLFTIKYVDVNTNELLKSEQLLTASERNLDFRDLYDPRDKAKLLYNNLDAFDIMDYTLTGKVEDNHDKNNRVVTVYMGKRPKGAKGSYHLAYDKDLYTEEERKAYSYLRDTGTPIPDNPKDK

[5] = test system: Streptococcus sp. 'group A'; test: Streptococcus pyogenes SK(-)GAS viability under kanamycin – luminescence, BacTiterGlo, confirmation, counter-screen for streptokinase expression inhibitor project, dose response (AID 1900); assay type: functional, organism-based
Protein RecA = molecular target: T5, Protein RecA (Mycobacterium tuberculosis, UniProt P9WHJ3); test: Fluorescence Cell-Free Homogeneous Dose Retest to Identify Inhibitors of RecA-Intein Splicing Activity. [Related pubchem assays (depositor defined):AID2097, AID2223, AID489010, AID492950]; assay type: functional
T5 sequence (P9WHJ3 whole entry): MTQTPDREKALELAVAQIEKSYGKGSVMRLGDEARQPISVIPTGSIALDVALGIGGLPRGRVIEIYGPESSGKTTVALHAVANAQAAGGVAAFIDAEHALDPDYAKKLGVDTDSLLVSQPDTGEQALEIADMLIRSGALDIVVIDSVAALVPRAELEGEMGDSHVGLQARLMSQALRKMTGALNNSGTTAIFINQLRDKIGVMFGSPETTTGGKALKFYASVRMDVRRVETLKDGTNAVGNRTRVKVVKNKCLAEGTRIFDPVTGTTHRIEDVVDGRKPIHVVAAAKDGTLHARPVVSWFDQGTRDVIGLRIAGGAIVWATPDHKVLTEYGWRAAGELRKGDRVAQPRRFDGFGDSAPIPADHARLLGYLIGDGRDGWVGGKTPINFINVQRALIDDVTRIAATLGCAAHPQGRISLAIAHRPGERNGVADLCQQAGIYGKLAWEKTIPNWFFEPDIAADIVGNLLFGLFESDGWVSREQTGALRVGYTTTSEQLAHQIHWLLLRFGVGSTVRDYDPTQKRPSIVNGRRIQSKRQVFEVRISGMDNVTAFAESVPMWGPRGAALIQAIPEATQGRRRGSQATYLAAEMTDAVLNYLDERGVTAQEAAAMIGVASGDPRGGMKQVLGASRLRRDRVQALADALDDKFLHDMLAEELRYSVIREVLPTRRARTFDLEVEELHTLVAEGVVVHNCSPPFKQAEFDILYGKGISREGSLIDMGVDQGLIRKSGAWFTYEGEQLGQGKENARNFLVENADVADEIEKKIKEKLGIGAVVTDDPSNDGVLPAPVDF

Streptococcus = test: GAS UMAA2166 growth inhibition – luminescence, BacTiterGlo, counter-screen for streptokinase expression inhibitor project, dose response (AID 1915); assay type: functional, organism-based;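 also: potency for reduction of bacterial viability or growth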
[6] = molecular target: T6, Rac GTPase-activating protein 1 (Homo sapiens, UniProt Q9H0H5); test: blockers of MgcRacGAP-driven Rac1 GTP hydrolysis – biochemical, ADP Hunter fluorescence, primary and confirmatory, confirmation (AID 624330); assay type: functional
T6 sequence (Q9H0H5 whole entry): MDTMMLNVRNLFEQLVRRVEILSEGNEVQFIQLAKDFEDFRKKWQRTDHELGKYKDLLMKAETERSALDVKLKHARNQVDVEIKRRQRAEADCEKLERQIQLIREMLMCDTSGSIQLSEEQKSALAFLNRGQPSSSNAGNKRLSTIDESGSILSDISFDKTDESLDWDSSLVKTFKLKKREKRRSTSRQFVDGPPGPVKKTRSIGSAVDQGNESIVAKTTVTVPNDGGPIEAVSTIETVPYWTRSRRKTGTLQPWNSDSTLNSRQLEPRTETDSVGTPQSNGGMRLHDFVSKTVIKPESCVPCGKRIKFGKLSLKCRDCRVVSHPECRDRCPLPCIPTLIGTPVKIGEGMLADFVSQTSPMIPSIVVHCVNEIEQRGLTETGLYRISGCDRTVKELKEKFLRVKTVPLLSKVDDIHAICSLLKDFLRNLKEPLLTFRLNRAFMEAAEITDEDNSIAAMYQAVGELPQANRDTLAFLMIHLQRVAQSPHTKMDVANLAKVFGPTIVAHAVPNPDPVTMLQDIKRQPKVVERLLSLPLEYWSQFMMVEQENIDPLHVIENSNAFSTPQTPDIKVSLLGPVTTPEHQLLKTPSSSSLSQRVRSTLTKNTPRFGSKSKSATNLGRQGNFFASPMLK

| SMILES | EC50 [1] | IC50 [2] | also measured |
| --- | --- | --- | --- |
| COc1ccc(CN(C(=O)c2ccc(C)cc2)C2CCS(=O)(=O)C2)cc1 (stereo unspecified) | > 53 µM (inactive) | > 47.1 µM (inactive) |  |
| COc1ccc(C2c3c(-c4ccccc4O)n[nH]c3C(=O)N2Cc2ccco2)cc1 (stereo unspecified) | > 53 µM (inactive) | > 47.1 µM (inactive) |  |
| Cc1ccc(Cl)cc1N1CCN(C(=O)Cc2c(C(=O)O)[nH]c3ccc(Cl)cc23)CC1 | > 53 µM (inactive) | > 47.1 µM (inactive) |  |
| Cc1nnsc1-c1onc(C)c1C(=O)O/N=C/c1ccc(Cl)cc1 | > 53 µM (inactive) | > 47.1 µM (inactive) |  |
| Cc1nn(C(C)C(=O)NCCCN2CCCCC2C)c(=O)c2c1sc1ccccc12 (stereo unspecified) |  |  | EC50 [3]: > 260 µM (inactive) |
| Cc1cc(F)c(F)c(C(=O)N2CCOCC2)c1Cl |  |  | EC50 [3]: > 260 µM (inactive) |
| Cc1cccc(S(=O)(=O)NCCC(=O)OC(C)C(=O)NC(=O)NC2CCCCC2)c1 (stereo unspecified) |  |  | EC50 [3]: > 260 µM (inactive) |
| COc1ccc(-c2cc(C(=O)O)nc3ccc4ccccc4c23)cc1OC | > 53 µM (inactive) | > 47.1 µM (inactive) |  |
| O=C(c1ccco1)N(Cc1ccc([N+](=O)[O-])cc1)c1ccc(Br)cc1 |  |  | EC50 [3]: > 260 µM (inactive) |
| COc1ccc([N+](=O)[O-])cc1N(CC(=O)NCCCOC(C)C)S(C)(=O)=O | > 53 µM (inactive) | > 47.1 µM (inactive) |  |
| O=C(COC(=O)CCc1ccc(S(=O)(=O)N2CCOCC2)cc1)Nc1ccccc1OC(F)F | > 53 µM (inactive) | > 47.1 µM (inactive) |  |
| O=C(CSCc1ccccc1)Nc1cc([N+](=O)[O-])ccc1F | > 53 µM (inactive) | > 47.1 µM (inactive) |  |
| Cc1sc2ncnc(Sc3ccccc3C(=O)Nc3ccc(C#N)cc3)c2c1C | > 53 µM (inactive) | > 47.1 µM (inactive) |  |
| Cc1ncc([N+](=O)[O-])n1CCOC(N)=O [BAMNIDAZOLE] | > 53 µM (inactive) | > 47.1 µM (inactive) |  |
| CCc1ccc(C2C(C#N)=C(N)C(C#N)(C#N)C3=CCC(C(C)(C)C)CC32)cc1 (stereo unspecified) |  |  | AC50 [4]: > 120 µM (inactive); EC50 (Streptokinase A): 5.84 µM (active); EC50 [5]: 4.85 µM (active); EC50 (Protein RecA): 3 µM (active); EC50 (Streptococcus): > 150 µM (not active) |
| CC(NC(=O)C1CCCN1S(=O)(=O)c1cccc2nsnc12)c1ccccc1 (stereo unspecified) | > 53 µM (inactive) | > 47.1 µM (inactive) |  |
| CCOc1ccc(N(CC(=O)NCC2CCCO2)C(=O)CCC(=O)Nc2nccs2)cc1 (stereo unspecified) | > 53 µM (inactive) | > 47.1 µM (inactive) |  |
| COc1ccc(Nc2ccccc2)c(C)c1 | > 53 µM (inactive) | > 47.1 µM (inactive) | IC50 [6]: 44.9 µM (active) |
